Reference: patent publication US9988406B2, “Forms of R)-3-(4-(2-(2-methyltetrazol-5-yl)pyridin-5-yl)-3-fluorophenyl)-5-hydroxymethyl oxazolidin-2-one dihydrogen phosphate” (Merck Sharp & Dohme Corp., priority 2009, dated 2018)

Columns and labels:
[1] = hygroscopicity / water content of the free acid and salt forms; assay type: physicochemical
[2] = stability of the crystalline free acid and salt forms; assay type: physicochemical

Compound	hygroscopicity (in words) [1]	water content ([1]; material as prepared)	stability of the crystalline form (in words) [2]
Cn1nnc(-c2ccc(-c3ccc(N4CC(COP(=O)([O-])O)OC4=O)cc3F)cn2)n1.[Na+] (stereo not shown) [mono-sodium salt]	very hygroscopic	over 10 % by weight	
(R)-3-(4-(2-(2-methyltetrazol-5-yl)pyridin-5-yl)-3-fluorophenyl)-5-hydroxymethyl oxazolidin-2-one dihydrogen phosphate [free acid]	non-hygroscopic		very stable at a relatively high temperature
